# Measured values: publication PMC7757739 (Chemical research in toxicology, 2019)
# Several values for one entry are separate records, joined by “and”; a condition that tells them apart may be missing. Identical values can stand only once. Like-named read-outs stand apart in the source and are kept apart here.
# How the values were obtained:
# [1] = target: T1, human AhR (Homo sapiens, UniProt P35869); test: AhR-responsive luciferase reporter gene induction in recombinant human hepatoma; settings: for potency relative to TCDD, in words / increased potency compared to tryptanthrin (3): 6h; for AhR-dependent reporter gene activity (efficacy), in words: Figure 3
# T1 sequence (P35869 11-848): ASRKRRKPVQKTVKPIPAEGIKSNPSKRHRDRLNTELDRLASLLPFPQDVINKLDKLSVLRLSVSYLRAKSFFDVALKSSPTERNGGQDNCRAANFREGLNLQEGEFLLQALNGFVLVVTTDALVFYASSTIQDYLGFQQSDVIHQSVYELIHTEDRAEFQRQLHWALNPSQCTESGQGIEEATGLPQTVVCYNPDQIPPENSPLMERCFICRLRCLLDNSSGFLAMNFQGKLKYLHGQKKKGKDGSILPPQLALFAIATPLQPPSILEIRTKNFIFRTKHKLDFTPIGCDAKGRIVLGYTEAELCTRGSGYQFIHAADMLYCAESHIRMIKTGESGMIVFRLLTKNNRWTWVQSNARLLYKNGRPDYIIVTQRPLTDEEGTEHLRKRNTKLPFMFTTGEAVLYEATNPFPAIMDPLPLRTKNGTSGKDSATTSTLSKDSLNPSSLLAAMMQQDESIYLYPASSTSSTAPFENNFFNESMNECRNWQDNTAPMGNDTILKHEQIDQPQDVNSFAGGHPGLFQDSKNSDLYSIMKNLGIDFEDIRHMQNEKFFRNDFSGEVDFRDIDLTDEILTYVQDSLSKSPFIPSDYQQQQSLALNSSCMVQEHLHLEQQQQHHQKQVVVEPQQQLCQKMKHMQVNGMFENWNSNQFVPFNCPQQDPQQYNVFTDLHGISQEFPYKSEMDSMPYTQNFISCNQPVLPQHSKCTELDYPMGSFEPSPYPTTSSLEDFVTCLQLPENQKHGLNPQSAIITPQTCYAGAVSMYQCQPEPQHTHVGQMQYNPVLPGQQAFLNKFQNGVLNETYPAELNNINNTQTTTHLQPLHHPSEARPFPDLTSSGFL
# [2] = target: T2, mouse AhR (Mus musculus, UniProt P30561); settings: mouse H1L7.5c3 cells
# T2 sequence (P30561 10-805 limits assumed): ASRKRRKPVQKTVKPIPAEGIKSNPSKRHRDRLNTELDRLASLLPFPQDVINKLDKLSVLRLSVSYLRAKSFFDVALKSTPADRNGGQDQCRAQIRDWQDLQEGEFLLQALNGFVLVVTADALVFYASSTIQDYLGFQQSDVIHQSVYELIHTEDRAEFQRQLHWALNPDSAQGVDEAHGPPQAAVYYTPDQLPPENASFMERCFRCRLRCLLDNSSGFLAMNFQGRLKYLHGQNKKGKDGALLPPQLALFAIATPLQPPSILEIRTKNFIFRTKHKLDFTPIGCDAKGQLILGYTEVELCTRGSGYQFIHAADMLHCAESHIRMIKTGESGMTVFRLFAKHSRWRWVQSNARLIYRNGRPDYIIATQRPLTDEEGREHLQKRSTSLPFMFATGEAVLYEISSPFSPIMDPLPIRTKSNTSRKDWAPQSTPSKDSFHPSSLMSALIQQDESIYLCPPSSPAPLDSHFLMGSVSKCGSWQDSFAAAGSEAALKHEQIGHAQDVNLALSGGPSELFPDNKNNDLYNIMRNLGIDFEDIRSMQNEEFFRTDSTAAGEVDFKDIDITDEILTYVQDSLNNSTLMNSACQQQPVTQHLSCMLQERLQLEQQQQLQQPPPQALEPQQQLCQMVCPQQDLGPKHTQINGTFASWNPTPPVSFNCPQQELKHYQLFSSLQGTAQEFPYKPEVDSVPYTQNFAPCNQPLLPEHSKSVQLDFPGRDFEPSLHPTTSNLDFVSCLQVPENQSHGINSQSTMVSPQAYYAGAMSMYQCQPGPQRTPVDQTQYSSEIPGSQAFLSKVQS
# T2 sequence (P11499 whole entry partner): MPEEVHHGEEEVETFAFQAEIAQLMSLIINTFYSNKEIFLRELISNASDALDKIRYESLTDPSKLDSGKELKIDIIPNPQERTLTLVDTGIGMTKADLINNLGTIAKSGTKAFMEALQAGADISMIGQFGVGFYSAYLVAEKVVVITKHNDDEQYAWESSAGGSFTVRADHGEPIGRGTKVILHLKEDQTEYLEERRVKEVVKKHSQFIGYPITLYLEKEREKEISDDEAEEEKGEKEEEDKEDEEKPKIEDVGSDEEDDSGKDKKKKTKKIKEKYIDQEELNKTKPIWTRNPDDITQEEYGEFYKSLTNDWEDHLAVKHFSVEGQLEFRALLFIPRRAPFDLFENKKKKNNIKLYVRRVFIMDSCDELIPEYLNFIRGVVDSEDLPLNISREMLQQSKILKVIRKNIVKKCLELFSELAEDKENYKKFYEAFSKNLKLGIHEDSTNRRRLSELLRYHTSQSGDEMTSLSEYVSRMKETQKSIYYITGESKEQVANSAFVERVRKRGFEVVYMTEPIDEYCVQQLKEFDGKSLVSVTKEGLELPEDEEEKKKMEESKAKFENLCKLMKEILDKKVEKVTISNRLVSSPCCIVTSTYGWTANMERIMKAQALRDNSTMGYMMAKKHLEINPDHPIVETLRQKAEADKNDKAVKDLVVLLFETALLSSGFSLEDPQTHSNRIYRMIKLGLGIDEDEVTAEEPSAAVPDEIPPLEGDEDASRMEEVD
# T2 sequence (O08915 whole entry partner): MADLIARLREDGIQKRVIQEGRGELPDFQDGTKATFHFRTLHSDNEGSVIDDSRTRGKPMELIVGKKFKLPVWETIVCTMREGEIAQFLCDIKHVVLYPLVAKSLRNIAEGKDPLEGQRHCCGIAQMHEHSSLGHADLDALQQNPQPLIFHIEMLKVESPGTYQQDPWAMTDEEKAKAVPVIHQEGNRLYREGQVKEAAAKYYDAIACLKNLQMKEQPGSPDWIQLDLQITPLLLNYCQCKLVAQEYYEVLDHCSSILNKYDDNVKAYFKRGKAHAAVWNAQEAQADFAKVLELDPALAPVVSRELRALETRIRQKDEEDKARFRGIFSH
# [3] = target: AhR (Homo sapiens, UniProt P35869); type: cell-based; settings: HG2L7.5c1 cells, 6h, Figure 4
# [4] = tested on: AhR; settings: ref [37]; cited from earlier work
# [5] = target: T2, mouse AhR; test: cell-based
# [6] = tested on: AhR; settings: mice or mouse cells; ref [34], [35], [76]; cited from earlier work
smiles,measurement,setting,value
"O=C1Nc2ccc(Cl)cc2C1=C1Nc2ccc(Cl)cc2C1=O [2b, 5,5’-dichloroindirubin]","potency relative to TCDD, in words",[1]; human HG2L7.5c1 cells,comparable to or greater than TCDD
"O=C1Nc2cc(Br)ccc2/C1=C1/Nc2cc(Br)ccc2C1=O [2f, 6,6’-dibromoindirubin]","potency relative to TCDD, in words",[1]; human HG2L7.5c1 cells,comparable to or greater than TCDD
"O=C1c2ccc(Br)cc2-n2c1nc1cc(Br)ccc1c2=O [3f, 3,9-dibromotryptanthrin]",increased potency compared to tryptanthrin (3),[1]; human HG2L7.5c1 cells,350 fold
same,"potency relative to TCDD, in words",[1]; human HG2L7.5c1 cells,comparable to the potency of TCDD
same,"potency relative to TCDD, in words","[1]; human HG2L7.5c1 cells, listed as 3,9-dibromotryptanthrin",equipotent
same,EC50,"[1]; human HG2L7.5c1 cells, evaluated at 6h",0.5 nM
same,"AhR-dependent reporter gene activity (efficacy), in words",[1]; human cells,induced maximal AhR-dependent reporter gene activity
same,times less potent than TCDD,[2],"4,000 fold and ~ 4,000 fold"
"O=C(O)Cc1ccc2c(c1)-n1c(nc3cc(CC(=O)O)ccc3c1=O)C2=O [3g, 3,9-dicarboxymethylotryptanthrin]","AhR-dependent reporter gene activity (efficacy), in words",[1]; human cells,completely inactive
"O=C1c2ccccc2-n2c1nc1cc(Br)ccc1c2=O [3h, 3-bromotryptanthrin]",times more potent than TCDD,[1]; human HG2L7.5c1 cells,10 fold
same,increased potency compared to tryptanthrin (3),[1]; human HG2L7.5c1 cells,"3,000 fold"
same,"AhR-dependent reporter gene activity (efficacy), in words",[1]; human cells,comparable to that produced by a maximally inducing concentration of TCDD
same,times less potent than TCDD,[2],"10,000 fold"
same,times less potent than TCDD,[2]; listed as 3-bromotryptanthrin,"> 10,000 fold"
Cc1ccccc1N=Nc1ccc(NC(=O)c2ccnn2C)c(C)c1 [CH223191],inhibition of TCDD-dependent induction of luciferase reporter gene expression,[3],inhibit
same,effect of antagonist on AhR activation by indirubin,[4],little effect
same,effect of antagonist on ability of TCDD to bind to and activate the AhR,[4],effectively inhibit
CC(C)n1cnc2c(NCCc3ccc(O)cc3)nc(-c3csc4ccccc34)nc21 [StemRegenin1],inhibition of TCDD-dependent induction of luciferase reporter gene expression,[3],inhibit
"Clc1cc2c(cc1Cl)Oc1cc(Cl)c(Cl)cc1O2 [TCDD, 2,3,7,8-tetrachlorodibenzo-p-dioxin, reference compound]",EC50,[5],0.1 nM
same,EC50,"[1]; EC50 for gene induction at 24h of incubation, human cells, 24h incubation",0.3 nM
"O=C1Nc2ccccc2/C1=C1/Nc2ccccc2C1=O [compound 2, Indirubin]",less potent than TCDD,[6],~ 100
"O=C1c2ccccc2-n2c1nc1ccccc1c2=O [compound 3, Tryptanthrin]",EC50,[5],810 nM
same,EC50,[1],170 nM
